Experimental data published in US8071569B2, “Oxidized heparin fractions and their use in inhibiting angiogenesis” (priority 2002, dated 2011).

Assays:
[1] = test system: chick chorioallantoic membrane (CAM); test: FGF2-induced neovascularization on the chick chorioallantoic membrane (CAM); format: in vivo; settings: FGF2 alone (filter disk, 1 μg/mL)
Method: In vivo neovascularization was examined by the method previously described by Auerbach et al. (Auerbach et al., J. Dev. Biol., 41:391-394 (1974), which is hereby incorporated by reference in its entirety). Ten-day old embryos were purchased from Spafas, Inc. (Preston, Conn.) and were incubated at 37° C. with 55% relative humidity. In the dark with the help of a candling lamp, a small hole was punctured in the shell concealing the air sac with a hypodermic needle. A second hole was punctured in the shell on the broadside of the egg directly over an avascular portion of the embryonic membrane, as observed during candling. A false air sac was created beneath the second hole by the application of negative pressure to the first hole, which caused the chorioallantoic membrane (CAM) to separate from the shell. […]
CAM tissue directly beneath FGF2-saturated filter disk was resected from embryos treated 48 hours prior with test compound or control. […] Digital images of CAM sections adjacent to filters were collected using a 3-CCD color video camera system (Toshiba America, New York, N.Y.) and analyzed using Image-Pro Plus software (Media Cybernetics, Silver Spring, Md.). Table 4 contains the number of vessel branch points contained in a circular region equal to the area of a filter disk counted for each section.

[2] = test system: Human umbilical vein endothelial cells (HUVEC); test: Inhibition of FGF2-stimulated endothelial cell tube formation on Matrigel; format: cell-based; settings: FGF2 alone 100 ng/ml, overnight
Method: Differentiation by endothelial cells was examined using a method developed by Grant et al. (Grant et al., In Vitro Cell Dev. Biol., 27A:327-336 (1991), which is hereby incorporated by reference in its entirety). Matrigel® matrix, phenol-red free (commercially available from Becton Dickinson, Bedford, Mass.) was thawed overnight at 4° C. Using cold pipette tips, 3.0 mg/well of Matrigel® matrix was placed in a cold twenty-four-multiwell plate (Falcon). Matrigel® matrix was allowed to polymerize during incubation at 37° C. for 30 minutes.
Human umbilical vein endothelial cells (HUVEC) were maintained at 37° C. with 5% CO2 and 95% humidity in endothelial cell growth medium with 2% fetal bovine serum (EGM). […]
Subsequently, the medium was aspirated and cells were fixed and stained using a modified HEMA-3 stain kit. Digital images of micro-titer well sections were collected using a DKC5000 3-CCD color video camera system (Toshiba America, New York, N.Y.) and analyzed using Image-Pro Plus software (Media Cybernetics, Silver Spring, Md.). The area and major axis length of stained cells having a tubular morphology was measured on the Matrigel® matrix surface (Becton Dickinson, Bedford, Pa.) counted from 5 images/well.

Colon tumor = test: CAM tumor implant model, colon tumor; format: in vivo, chick; settings: 0.01 mg single dose over 7 days, initial implant 45 ± 5 mg, n = 8
Method: Ten million tumor cells were placed on the surface of each CAM and were cultured for one week. The resulting tumors were excised and cut into 50 mg fragments. These fragments were placed on additional CAMs and treated topically or systemically by intravenous injection the following day with the test agents. […] Each treatment group incorporated at least ten tumors per experiment. Tumors were then excised from the egg and tumor weights were determined for each tumor.

Substance | Average # of Branch Points [1] | Cell Tube Formation (area, mm^2) [2] [mm^2] | Cell Tube Formation (length, mm) [2] [mm] | Mean tumor weight (mg) ± SEM (Colon tumor) [mg]
FGF2: recombinant human fibroblast growth factor basic, angiogenic stimulus | 264 + 18 | 2.50 ± 0.28 | 79.83 ± 8.66 | –
r-TFPI: r-tissue factor pathway inhibitor | – | – | – | 38 ± 8
